Measurements published in US6841563B1, “Aryloxy propanolamines for improving livestock production” (Eli Lilly and Company, priority 1999, dated 2005).
Marks after values point to notes of the source that are not given here.

Assay: Weight gain, feed efficiency and carcass characteristics, last 14 days of growing period in broiler chickens
Assay type: in vivo
Details: for Dressing Percentage / Fat Pad Weight / Final Weight / Hot Carcass Weights / Pen Feed Intake / Total 14 day Weight Gain / Viscera Weight / Feed Efficiency F/G: day 35-49; for Feed Efficiency F/G: pen feed intake/total pen weight; for increase in weight gain over control / improvement of feed efficiency versus control: 14-day treatment period
Source text: Approximately 1500 Peterson-Hubbard, day-old, male chicks were used in a randomized, complete-block design with 4 treatments (Control, Clenbuterol at 1 PPM, and Compound 6 at 3 and 15 PPM (mg/kg feed)). The testing facility contained 36 pens, divided equally into 6 blocks. Treatments were randomly allotted to pens within each block. Each treatment consisted of 6 pens with 10 birds per pen.
Day-of-age birds were obtained from Pine Manor Hatchery in Goshen, Ind. Approximately 40 birds per pen were set at random upon receipt. On day 30 of the growout period, all birds were weighed and the 15 birds closest to the block mean were selected. These birds were allowed to acclimate until day 35 of age. On that day, all remaining birds were weighed again, and the 10 birds/pen closest to the block mean were chosen for the treatment phase. Birds were provided ad libitum access to feed and water throughout the trial. All birds were fed a 23% crude protein corn-soy ration from day 1 until day 18 of age. The feed was changed to a 20% crude protein corn-soy ration from day 18 to day 49. The treatment feed was mixed using the same 20% crude protein basal ration. Treatments were administered in the feed from day 35 through day 49. Feed consumption was calculated over the entire 14-day treatment period. Birds were weighed at trial completion (day 49), and transported to Purdue University, West Lafayette, Ind. 47907, U.S.A. meat laboratory for slaughter and carcass measurements on day 50. Weights of the hot carcass, fat pad, and viscera were taken on all animals.

CC(C)(Cc1ccc(Oc2ncccc2C(N)=O)cc1)NC[C@H](O)COc1cccc2[nH]ccc12 [Compound 6, (S)-2-[4-[2-[2-Hydroxy-3-(1H-indol-4-yloxy)propylamino]-2-methylpropyl]-phenoxy]-3-pyridinecarboxamide]
Dressing Percentage (3 PPM in feed): 72.43*
Fat Pad Weight (3 PPM in feed): 28.67 g
Final Weight (3 PPM in feed): 3.02 kg
Hot Carcass Weights (3 PPM in feed): 2175.69* g
Pen Feed Intake (3 PPM in feed): 25.74 kg
Total 14 day Weight Gain (3 PPM in feed): 1.30 kg
Viscera Weight (3 PPM in feed): 283.04 g
Feed Efficiency F/G (3 PPM in feed): 1.95
increase in weight gain over control (3 PPM, P=0.0987): 3.17%
improvement of feed efficiency versus control (3 PPM, P=0.2936): 2.50%
increase in hot carcass weights compared to control (3 PPM, P=0.0174): 2.50%
increase in fat pad weight (3 PPM, P=0.1069): 9.68%
decrease in viscera weights with respect to control (3 PPM, P=0.3981): 1.50%
Dressing Percentage (15 PPM in feed): 72.63**
Fat Pad Weight (15 PPM in feed): 27.21 g
Final Weight (15 PPM in feed): 3.02 kg
Hot Carcass Weights (15 PPM in feed): 2182.55** g
Pen Feed Intake (15 PPM in feed): 25.25 kg
Total 14 day Weight Gain (15 PPM in feed): 1.30 kg
Viscera Weight (15 PPM in feed): 285.49 g
Feed Efficiency F/G (15 PPM in feed): 1.94
increase in weight gain over control (15 PPM, P=0.0756): 3.17%
improvement of feed efficiency versus control (15 PPM, P=0.1957): 3.00%
increase in hot carcass weights compared to control (15 PPM, P=0.0078): 2.82%
increase in fat pad weight (15 PPM, P=0.4814): 4.09%
decrease in viscera weights with respect to control (15 PPM, P=0.7279): 0.65%
